Measured values taken from US20230040386A1, “URSODEOXYCHOLIC ACID-CONTAINING AGENT FOR TREATING OR PREVENTING PRESBYOPIA” (priority 2018, published 2023).

Test system: lens
Assay: Pharmacological Test 2: lens elasticity after instillation of sodium ursodeoxycholate
Format: in vivo, C57BL/6J mice
Settings: 1.5% (w/v) sample, 2.5 μL/eye, 3 times per day, 12 to 15 days, vs vehicle control
Experimental: A vehicle comprising 0.1% (w/v) of ethyl pyruvate, 0.269% (w/v) of sodium dihydrogenphosphate monohydrate (NaH2PO4H2O), 0.433% (w/v) of disodium hydrogenphosphate (Na2HPO4), 0.2% (w/v) of hydroxypropyl methylcellulose, 0.5% (w/v) of NaCl was prepared. Sodium ursodeoxycholate was sonicated with the addition of the vehicle to prepare a 1.5% (w/v) suspension. The resulting 1.5% (w/v) suspension was diluted with the vehicle to prepare a 0.5% (w/v) suspension. Further, the resulting 0.5% (w/v) suspension was diluted with the vehicle to prepare a 0.15% (w/v) suspension. The total amount of each sample to be used in one day was prepared before use. EV06 was sonicated with the addition of the vehicle to prepare a 1.5% (w/v) solution. The total amount of the sample to be used in one day was prepared before use. 1) Each test sample (2.5 μL/eye) was instilled into the right eye of 8-month-old C57BL/6J mice with a Pipetman 3 times per day (around 9:00, 13:00 and 17:00) for 12 to 15 days. 2) After the final instillation, the mice were euthanized by carbon dioxide inhalation, and then the eyeballs were extracted and rinsed with Hank's balanced salt solution (HBSS)). 3) The sclera near the optic nerve was cut with a razor, the lens was removed through the incision, and the removed lens was immersed in HBSS. 4) The lens was placed on a glass slide, and an all-in-one fluorescence microscope BZ-9000 (Keyence) was used to capture an image of the lens (Image a). 5) Next, one cover glass (Corning^(registered trade mark) 22×22 mm Square) was placed on the lens, and an image in which the thickness of the lens changed due to the weight was similarly captured (Image b). 6) A change in the lens diameter was calculated from Equation 1 wherein the lens diameter of Image a is subtracted from the lens diameter of Image b, as described below. Then, the lens elasticity improvement of each sample group compared with the vehicle control group was calculated from Equation 2 described below. The mean of the vehicle control group was based on 5 eyes, the mean of each sodium ursodeoxycholate sample group was based on 10 eyes, and the mean of the EV06 sample group was based on 10 eyes. Change in lens diameter Lens diameter in image b of each test sample−Lens diameter in Image a of each test sample (Equation 1) Lens elasticity improvement of each sample group=Mean change in lens diameter of each Test sample group−Mean change in lens diameter of Vehicle control group (Equation 2)

C[N+](C)(C)CCOC(=O)CCCC[C@@H]1CCSS1 [EV06, lipoic acid choline ester]
Lens elasticity improvement: 38.2 μm
